Data taken from patent US6544540B2, “Base-triggered release microcapsules” (priority 1998, dated 2003).

Experiments:
Lygus hesperus = assay: Test 1 A. Contact/Residue Contact, adult bugs in cages sprayed, mortality; format: in vivo
Description: Lygus hesperius was the subject in this test. Adult bugs in cages were sprayed at 250 l/h. There were four replicates of 10 insects for 5 rates of each formulation. Mortality assessments were made at 1, 2, 3, 4, 5, and 6 DAT.

Heliothis virescens = assay: Test 1 B. Foliar Persistence, neonate larvae on disks of sprayed detached cotton leaves, mortality; format: in vivo; conditions: cotton leaf disks

## CCOP(=S)(OCC)Oc1nc(Cl)c(Cl)cc1Cl [Chlorpyrifos technical, chlorpyrifos]
Lygus hesperus; mortality at 1 DAT, sprayed at 250 l/h
  LC50 1DAT: 313 ppm
Lygus hesperus; mortality at 2 DAT, sprayed at 250 l/h
  LC50 2DAT: 310 ppm
Lygus hesperus; mortality at 3 DAT, sprayed at 250 l/h
  LC50 3DAT: 311 ppm
Lygus hesperus; mortality at 4 DAT, sprayed at 250 l/h
  LC50 4DAT: 313 ppm
Lygus hesperus; mortality at 5 DAT, sprayed at 250 l/h
  LC50 5DAT: 313 ppm
Lygus hesperus; mortality at 6 DAT, sprayed at 250 l/h
  LC50 6DAT: 325 ppm
Lygus hesperus; previous test results, Lygus hesperus contact/residue contact
  LC50: ~300 ppm
Heliothis virescens; Total over 1-3 DAT
  LC50 Total: 10.2 ppm
Heliothis virescens; mortality at 1 DAT
  LC50 1DAT: 9.8 ppm
Heliothis virescens; mortality at 2 DAT
  LC50 2DAT: 8.6 ppm
Heliothis virescens; mortality at 3 DAT
  LC50 3DAT: 12.2 ppm
